According to ChEMBL document CHEMBL1123699, “Selective cytotoxicity of a system L specific amino acid nitrogen mustard” (J Med Chem, 1987):

What was measured:
[1] = rat
L1210 [2] = test: Lethal dose was determined for […] activity against murine leukemia cells (L1210); type: toxicity, cell-based; settings: mouse
L1210 [3] = test: Inhibitory activity against murine leukemia cells (L1210) was determined; type: functional, cell-based, Mus musculus
CFU-C = test: Lethal dose was determined for […] activity against […]; type: toxicity, cell-based; settings: mouse
[4] = Therapeutic index is the ratio of LD90 of CFU-C to LD90 of L1210 cell lines; type: cell-based; settings: mouse, CFU-C and L1210 cells
L1210 [5] = test: Inhibitory activity against leucine-preferring transport system (system L) was determined in murine leukemia L1210 cell lines; type: functional, cell-based, Mus musculus

Structure (SMILES) | half-life [1] [min] | LD90 (L1210 [2]) [µM] | Ki (L1210 [3]) [µM] | LD90 (CFU-C) [µM] | selectivity ratio [4] | Ki (L1210 [5]) [µM]
NC1(C(=O)O)CCc2ccc(N(CCCl)CCCl)cc2C1 (stereo not given) | 40 | 23.8 | 0.22 | 26.5 | 0.9 | –
NC1(C(=O)O)CCc2c(cccc2N(CCCl)CCCl)C1 (stereo not given) | – | – | – | – | – | 15.2
NC1(C(=O)O)CCc2ccccc2C1 (stereo not given) | – | – | – | – | – | 5
N[C@@H](Cc1ccc(N(CCCl)CCCl)cc1)C(=O)O [MELPHALAN] | – | 35 | 112 | 14 | – | –
